Results on nine compounds are retold here after ChEMBL document CHEMBL4270672, “Synthesis and Biological Evaluation of Fused Tricyclic Heterocycle Piperazine (Piperidine) Derivatives As Potential Multireceptor Atypical Antipsychotics” (J Med Chem, 2018).

A short description of series [1]: Therapeutic index, ratio of ED50 for catalepsy in Kunming mouse to ED50 for MK-801-induced hyperactivity in Kunming mouse. Type of series: toxicity, organism-based. The conditions noted are these: in vivo, read-out: Ratio ED50.
The species entered for series [2] is Mus musculus. The series can be described thus: animal or person. The conditions noted are these: Kunming, po.
Description: Antipsychotic activity in po dosed Kunming mouse assessed as reduction in apomorphine-induced climbing pretreated for 30 mins followed by apomorphine injection measured at 10 to 30 mins post dose
Series [3] has as its system Mus musculus. The series can be described thus: Induction of catalepsy in po dosed Kunming mouse measured after 60 secs. Type of series: organism-based. The conditions noted are these: in vivo, 1 min.
Series [4] is described as follows: Therapeutic index, ratio of ED50 for catalepsy in Kunming mouse to ED50 for apomorphine-induced climbing in Kunming mouse. The format is toxicity, organism-based. The conditions noted are these: in vivo, read-out: Ratio ED50.
The species entered for series [5] is Mus musculus. Nature of the series: animal or person. The conditions noted are these: Kunming, po. This is another data set of the same source.
Description: Antipsychotic activity in po dosed Kunming mouse assessed as reduction in MK-801-induced hyperactivity pretreated for 60 mins followed by MK-801 challenge measured for 90 mins
In series [6] the target is D(2) dopamine receptor (Homo sapiens, UniProt P14416). The series can be described thus: Antagonist activity at dopamine D2 receptor long isoform (unknown origin) expressed in HEK293 cells assessed as inhibition of dopamine-induced calcium flux at 10 uM after 15 mins by calcium 4-dye based FLIPR assay relative to control. Type of series: functional, cell-based. Background: Calcium flux is commonly read through the fluorescence of an indicator in the cells.
Chain of D(2) dopamine receptor (Homo sapiens, UniProt P14416) (P14416 whole entry, canonical isoform): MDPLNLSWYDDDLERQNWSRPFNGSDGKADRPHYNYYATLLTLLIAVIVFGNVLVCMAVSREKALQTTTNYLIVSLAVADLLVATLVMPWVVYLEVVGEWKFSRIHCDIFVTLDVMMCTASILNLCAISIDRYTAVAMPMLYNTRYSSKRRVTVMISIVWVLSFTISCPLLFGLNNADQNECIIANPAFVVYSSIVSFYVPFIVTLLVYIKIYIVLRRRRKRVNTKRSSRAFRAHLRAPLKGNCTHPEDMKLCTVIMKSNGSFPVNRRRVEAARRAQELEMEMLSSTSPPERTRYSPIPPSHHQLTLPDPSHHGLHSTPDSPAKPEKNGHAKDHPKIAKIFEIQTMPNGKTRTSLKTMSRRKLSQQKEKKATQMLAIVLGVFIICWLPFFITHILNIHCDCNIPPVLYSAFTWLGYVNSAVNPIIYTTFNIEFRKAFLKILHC

Series [7] has as its system Mus musculus. The series can be described thus: Induction of weight gain in Kunming mouse at 0.03 to 0.27 mg/kg, po administered for 28 days measured every day during compound dosing. The format is organism-based. The conditions noted are these: in vivo, 672 h.
In series [8] the test system is Rattus norvegicus. Nature of the series: Cognitive enhancing effect in Sprague-Dawley rat assessed as effect on total exploration time for familiar objects in acquisition trial at 0.2 mg/kg, po administered 1 hr measured for 3 mins by novel object recognition test. The format is functional, organism-based.
The subject of series [9] is Rattus norvegicus. The series can be described thus: Antipsychotic activity in po dosed Sprague-Dawley rat assessed as reduction in conditioned avoidance response measured at 90 mins post single dose. The format is functional. The conditions noted are these: 1.5 h.
Series [10] has as its system Rattus norvegicus. The series can be described thus: Cognitive enhancing effect in Sprague-Dawley rat assessed as effect on total exploration time for familiar objects in acquisition trial at 0.3 mg/kg, po administered 1 hr measured for 3 mins by novel object recognition test. Type of series: functional, organism-based.
Series [11] concerns the target T1, 5-hydroxytryptamine receptor 2C (Rattus norvegicus, UniProt P08909).
T1 sequence (P08909 whole entry): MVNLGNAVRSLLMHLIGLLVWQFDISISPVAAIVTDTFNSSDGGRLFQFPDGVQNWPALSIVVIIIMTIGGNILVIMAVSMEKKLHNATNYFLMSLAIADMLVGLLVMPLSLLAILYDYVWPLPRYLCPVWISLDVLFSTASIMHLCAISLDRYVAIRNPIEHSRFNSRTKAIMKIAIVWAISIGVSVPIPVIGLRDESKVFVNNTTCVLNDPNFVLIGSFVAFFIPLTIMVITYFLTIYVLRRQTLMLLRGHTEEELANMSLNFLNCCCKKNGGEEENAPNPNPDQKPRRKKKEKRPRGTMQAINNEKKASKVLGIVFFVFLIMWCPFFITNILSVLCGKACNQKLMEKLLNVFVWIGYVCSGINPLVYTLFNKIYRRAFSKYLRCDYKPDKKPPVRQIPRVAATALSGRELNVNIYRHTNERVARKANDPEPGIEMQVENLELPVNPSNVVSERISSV

The target of series [12] is Histamine H1 receptor (Cavia porcellus, UniProt P31389).
Chain of Histamine H1 receptor (P31389 whole entry): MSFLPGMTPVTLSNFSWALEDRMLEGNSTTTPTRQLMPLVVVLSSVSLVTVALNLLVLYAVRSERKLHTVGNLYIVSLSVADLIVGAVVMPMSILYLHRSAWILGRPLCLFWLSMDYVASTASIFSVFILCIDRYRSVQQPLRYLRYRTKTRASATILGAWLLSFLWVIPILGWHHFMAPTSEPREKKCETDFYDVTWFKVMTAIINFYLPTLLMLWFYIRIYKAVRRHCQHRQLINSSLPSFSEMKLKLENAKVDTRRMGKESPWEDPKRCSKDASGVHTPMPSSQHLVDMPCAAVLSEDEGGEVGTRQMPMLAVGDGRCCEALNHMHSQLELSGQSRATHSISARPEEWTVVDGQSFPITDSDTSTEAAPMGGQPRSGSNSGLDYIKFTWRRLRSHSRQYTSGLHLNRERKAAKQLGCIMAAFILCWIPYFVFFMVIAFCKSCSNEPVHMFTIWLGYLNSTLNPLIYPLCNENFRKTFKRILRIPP
Description: Displacement of [3H]-mepyramine from histamine H1 receptor in guinea pig cerebellum homogenates incubated for 60 mins by liquid scintillation counting
In series [13] the target is T2, 5-hydroxytryptamine receptor 6 (Homo sapiens, UniProt P50406). The series can be described thus: biochemical.
T2 sequence (P50406 whole entry): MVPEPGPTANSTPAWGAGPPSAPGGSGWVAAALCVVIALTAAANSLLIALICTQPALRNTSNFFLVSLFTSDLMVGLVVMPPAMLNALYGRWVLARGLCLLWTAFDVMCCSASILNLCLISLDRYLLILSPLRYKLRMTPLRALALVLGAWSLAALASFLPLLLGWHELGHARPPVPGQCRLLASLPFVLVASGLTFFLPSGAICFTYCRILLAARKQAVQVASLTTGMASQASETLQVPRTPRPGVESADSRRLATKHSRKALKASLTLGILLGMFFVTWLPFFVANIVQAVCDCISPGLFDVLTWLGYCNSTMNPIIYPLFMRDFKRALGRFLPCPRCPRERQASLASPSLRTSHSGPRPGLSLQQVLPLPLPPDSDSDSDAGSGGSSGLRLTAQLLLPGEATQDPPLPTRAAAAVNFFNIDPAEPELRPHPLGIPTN
For series [14], the target named is D(3) dopamine receptor (Rattus norvegicus, UniProt P19020).
Chain of D(3) dopamine receptor (P19020 whole entry): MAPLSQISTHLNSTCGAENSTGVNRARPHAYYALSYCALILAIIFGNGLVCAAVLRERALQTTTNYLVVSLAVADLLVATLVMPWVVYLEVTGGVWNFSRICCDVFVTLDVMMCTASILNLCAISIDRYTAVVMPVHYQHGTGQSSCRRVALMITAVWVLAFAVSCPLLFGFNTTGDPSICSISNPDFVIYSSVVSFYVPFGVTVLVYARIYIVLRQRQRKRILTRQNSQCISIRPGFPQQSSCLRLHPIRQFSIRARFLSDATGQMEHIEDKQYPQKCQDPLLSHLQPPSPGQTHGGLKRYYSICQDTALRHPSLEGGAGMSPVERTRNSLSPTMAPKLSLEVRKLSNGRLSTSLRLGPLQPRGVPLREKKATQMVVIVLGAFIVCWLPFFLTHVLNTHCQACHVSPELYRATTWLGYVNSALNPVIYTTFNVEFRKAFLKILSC
For series [15], the target named is T3, Adrenergic receptor alpha-1 (Rattus norvegicus, UniProt P15823+P23944+P43140).
T3 sequence (P15823 whole entry): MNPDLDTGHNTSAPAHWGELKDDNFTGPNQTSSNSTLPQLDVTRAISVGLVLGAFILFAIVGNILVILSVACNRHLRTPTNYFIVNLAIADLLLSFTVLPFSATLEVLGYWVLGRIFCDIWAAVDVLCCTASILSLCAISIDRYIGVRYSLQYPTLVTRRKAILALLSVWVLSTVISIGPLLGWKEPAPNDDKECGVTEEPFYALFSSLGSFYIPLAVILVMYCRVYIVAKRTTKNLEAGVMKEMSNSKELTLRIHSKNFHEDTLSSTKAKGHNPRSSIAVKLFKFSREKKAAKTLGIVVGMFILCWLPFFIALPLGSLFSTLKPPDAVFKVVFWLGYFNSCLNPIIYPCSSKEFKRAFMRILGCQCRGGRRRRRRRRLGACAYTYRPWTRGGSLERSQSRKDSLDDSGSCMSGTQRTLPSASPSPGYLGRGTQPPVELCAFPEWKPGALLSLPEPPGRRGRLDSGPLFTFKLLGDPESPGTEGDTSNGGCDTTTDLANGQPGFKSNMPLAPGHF
T3 sequence (P23944 whole entry): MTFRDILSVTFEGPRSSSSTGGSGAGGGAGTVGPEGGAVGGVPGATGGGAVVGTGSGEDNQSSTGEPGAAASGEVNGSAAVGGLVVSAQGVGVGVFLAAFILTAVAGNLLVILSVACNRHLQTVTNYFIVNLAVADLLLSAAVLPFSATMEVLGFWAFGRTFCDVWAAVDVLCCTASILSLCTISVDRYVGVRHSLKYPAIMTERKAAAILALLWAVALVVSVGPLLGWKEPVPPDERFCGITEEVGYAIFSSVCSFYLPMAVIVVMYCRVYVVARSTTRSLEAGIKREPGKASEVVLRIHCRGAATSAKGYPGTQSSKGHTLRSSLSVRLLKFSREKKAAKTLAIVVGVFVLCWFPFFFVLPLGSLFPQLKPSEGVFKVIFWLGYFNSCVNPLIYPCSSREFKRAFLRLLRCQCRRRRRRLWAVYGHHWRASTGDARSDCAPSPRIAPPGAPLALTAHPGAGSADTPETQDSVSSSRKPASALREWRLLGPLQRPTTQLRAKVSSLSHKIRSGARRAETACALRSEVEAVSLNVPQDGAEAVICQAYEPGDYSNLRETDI
T3 sequence (P43140 whole entry): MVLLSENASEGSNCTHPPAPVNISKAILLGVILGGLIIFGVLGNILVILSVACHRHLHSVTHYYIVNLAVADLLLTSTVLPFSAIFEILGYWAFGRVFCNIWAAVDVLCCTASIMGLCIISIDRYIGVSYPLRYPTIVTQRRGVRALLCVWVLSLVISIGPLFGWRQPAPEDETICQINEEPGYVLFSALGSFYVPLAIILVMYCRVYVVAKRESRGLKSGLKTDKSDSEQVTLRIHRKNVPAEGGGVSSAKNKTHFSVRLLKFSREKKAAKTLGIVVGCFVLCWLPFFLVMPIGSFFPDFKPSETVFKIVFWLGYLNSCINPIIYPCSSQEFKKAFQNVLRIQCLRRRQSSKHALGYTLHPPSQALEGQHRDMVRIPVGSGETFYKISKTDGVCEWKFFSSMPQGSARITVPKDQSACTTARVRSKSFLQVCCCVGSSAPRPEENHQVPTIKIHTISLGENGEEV
Description: Displacement of [3H]-prazosin from alpha-1 adrenergic receptor in rat cerebral cortex homogenates incubated for 60 mins by liquid scintillation counting

Series [16] addresses D(2) dopamine receptor (Rattus norvegicus, UniProt P61169).
For series [17], the target named is T4, 5-hydroxytryptamine receptor 1A (Rattus norvegicus, UniProt P19327).
T4 sequence (P19327 whole entry): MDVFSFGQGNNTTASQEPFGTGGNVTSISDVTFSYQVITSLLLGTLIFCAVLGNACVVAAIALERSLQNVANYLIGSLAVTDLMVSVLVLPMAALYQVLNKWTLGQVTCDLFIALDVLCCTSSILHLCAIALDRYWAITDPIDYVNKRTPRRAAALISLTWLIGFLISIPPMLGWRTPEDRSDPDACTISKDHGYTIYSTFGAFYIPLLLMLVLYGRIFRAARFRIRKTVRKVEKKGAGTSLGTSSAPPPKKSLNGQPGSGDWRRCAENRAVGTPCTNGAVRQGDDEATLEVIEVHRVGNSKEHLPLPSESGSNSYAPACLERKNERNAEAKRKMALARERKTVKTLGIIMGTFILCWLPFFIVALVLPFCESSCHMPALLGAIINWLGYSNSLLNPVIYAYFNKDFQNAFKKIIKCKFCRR

In series [18] the target is 5-hydroxytryptamine receptor 2A (Rattus norvegicus, UniProt P14842). Nature of the series: Displacement of [3H]-ketanserine from serotonin 5-HT2A receptor in rat brain cortex homogenates incubated for 30 mins by liquid scintillation counting. For orientation: In a radioligand displacement assay an active substance lowers the binding of a labelled ligand.
Chain of 5-hydroxytryptamine receptor 2A (Rattus norvegicus, UniProt P14842) (P14842 whole entry): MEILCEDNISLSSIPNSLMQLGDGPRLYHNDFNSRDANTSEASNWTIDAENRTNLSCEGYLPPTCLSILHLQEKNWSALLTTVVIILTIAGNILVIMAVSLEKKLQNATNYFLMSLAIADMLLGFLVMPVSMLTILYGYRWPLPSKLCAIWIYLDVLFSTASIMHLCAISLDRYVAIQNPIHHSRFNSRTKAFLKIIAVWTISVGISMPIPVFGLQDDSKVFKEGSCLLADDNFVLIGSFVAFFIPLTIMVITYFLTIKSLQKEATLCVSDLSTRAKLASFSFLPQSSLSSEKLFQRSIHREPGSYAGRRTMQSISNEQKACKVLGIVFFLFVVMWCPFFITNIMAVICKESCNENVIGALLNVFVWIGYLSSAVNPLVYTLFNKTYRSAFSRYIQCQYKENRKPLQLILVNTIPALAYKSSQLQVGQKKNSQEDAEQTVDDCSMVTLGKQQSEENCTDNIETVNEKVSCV
In series [19] the target is T2, 5-hydroxytryptamine receptor 6. Nature of the series: Agonist activity at serotonin 5-HT6 receptor (unknown origin) expressed in HEK293 cells assessed as induction of calcium flux at 10 uM after 60 mins by calcium 4-dye based FLIPR assay relative to control. Type of series: functional, cell-based.
Series [20] concerns the target 5-hydroxytryptamine receptor 2A (Homo sapiens, UniProt P28223). The series can be described thus: Agonist activity at serotonin 5-HT2A receptor (unknown origin) expressed in HEK293 cells assessed as induction of calcium flux at 10 uM after 60 mins by calcium 4-dye based FLIPR assay relative to control. The format is functional, cell-based.
In series [21] the target is Voltage-gated inwardly rectifying potassium channel KCNH2 (Homo sapiens, UniProt Q12809).
Chain of Voltage-gated inwardly rectifying potassium channel KCNH2 (Q12809 whole entry): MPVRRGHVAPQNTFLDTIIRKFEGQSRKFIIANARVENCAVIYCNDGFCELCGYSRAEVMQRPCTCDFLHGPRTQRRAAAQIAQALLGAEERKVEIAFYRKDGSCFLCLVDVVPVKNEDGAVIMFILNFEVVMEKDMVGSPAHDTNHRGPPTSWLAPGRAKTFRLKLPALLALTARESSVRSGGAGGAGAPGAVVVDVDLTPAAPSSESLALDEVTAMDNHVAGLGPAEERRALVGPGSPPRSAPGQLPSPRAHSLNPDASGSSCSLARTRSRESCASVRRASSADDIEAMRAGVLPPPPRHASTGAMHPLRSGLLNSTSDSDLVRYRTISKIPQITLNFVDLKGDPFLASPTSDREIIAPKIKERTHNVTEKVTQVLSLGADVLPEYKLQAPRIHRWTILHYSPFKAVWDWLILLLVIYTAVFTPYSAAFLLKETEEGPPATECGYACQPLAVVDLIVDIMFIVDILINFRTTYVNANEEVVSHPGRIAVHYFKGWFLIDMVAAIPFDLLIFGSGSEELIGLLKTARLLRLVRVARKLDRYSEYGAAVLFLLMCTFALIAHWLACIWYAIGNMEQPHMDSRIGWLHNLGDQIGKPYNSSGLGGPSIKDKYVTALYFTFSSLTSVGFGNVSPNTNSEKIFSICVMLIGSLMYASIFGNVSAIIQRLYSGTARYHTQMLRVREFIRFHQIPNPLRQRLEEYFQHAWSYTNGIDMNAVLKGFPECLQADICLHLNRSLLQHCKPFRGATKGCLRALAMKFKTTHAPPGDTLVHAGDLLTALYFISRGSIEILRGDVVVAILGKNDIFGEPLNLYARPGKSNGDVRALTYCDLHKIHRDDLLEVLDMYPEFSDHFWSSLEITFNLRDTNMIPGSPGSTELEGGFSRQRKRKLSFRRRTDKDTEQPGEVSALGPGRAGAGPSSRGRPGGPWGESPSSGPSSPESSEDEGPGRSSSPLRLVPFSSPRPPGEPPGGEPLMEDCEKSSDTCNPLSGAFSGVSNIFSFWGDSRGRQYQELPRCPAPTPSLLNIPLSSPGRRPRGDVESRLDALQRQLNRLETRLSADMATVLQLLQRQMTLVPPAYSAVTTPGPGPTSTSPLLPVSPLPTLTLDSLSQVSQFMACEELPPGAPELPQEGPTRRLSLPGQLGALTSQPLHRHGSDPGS
Description: Inhibition of human ERG expressed in HEK293 cells at -50 mV holding potential by patch clamp assay

Each structure is given as a SMILES string. Active and inactive are the calls of the source. The rule behind the calls is not given here.

Chain of D(2) dopamine receptor (Rattus norvegicus, UniProt P61169) (P61169 whole entry): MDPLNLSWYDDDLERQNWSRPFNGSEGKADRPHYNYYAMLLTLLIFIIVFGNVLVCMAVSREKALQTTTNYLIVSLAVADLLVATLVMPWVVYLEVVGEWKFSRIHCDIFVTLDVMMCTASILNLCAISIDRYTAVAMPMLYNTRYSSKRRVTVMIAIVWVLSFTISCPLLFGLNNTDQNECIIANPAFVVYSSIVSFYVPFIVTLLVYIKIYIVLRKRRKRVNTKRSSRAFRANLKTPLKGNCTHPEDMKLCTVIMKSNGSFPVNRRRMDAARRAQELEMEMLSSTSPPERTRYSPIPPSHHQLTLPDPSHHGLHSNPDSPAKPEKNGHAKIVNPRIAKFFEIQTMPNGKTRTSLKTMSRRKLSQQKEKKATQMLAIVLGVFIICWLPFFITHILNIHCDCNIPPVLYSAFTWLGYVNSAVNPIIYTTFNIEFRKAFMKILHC
Chain of 5-hydroxytryptamine receptor 2A (Homo sapiens, UniProt P28223) (P28223 whole entry): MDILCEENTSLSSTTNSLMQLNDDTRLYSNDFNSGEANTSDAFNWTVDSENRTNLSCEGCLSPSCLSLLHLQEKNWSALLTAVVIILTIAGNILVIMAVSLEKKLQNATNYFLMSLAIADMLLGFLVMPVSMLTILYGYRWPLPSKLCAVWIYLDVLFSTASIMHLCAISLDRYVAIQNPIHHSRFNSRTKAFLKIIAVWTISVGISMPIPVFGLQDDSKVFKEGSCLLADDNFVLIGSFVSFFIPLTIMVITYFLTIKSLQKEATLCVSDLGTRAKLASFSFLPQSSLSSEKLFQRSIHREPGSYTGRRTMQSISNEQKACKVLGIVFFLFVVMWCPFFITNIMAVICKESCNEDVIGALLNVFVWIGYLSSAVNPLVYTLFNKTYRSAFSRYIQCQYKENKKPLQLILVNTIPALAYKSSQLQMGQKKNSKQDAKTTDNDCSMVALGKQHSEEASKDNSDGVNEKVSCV

One may read the ED50 as the dose that gives a 50% effect, or the effect in half of the subjects. With `O=C(CCCN1CCC(O)(c2ccc(Cl)cc2)CC1)c1ccc(F)cc1` [HALOPERIDOL], the selectivity ratio came to 0.75 in series [1] and 1.09 in series [4]. Moreover, the results for the ED50 in series [2], in [3] and in series [5] were 0.11 mg/kg, 0.12 mg/kg and 0.16 mg/kg, respectively.

As a reminder, the inhibition is the drop in the measured response relative to a control, in per cent. Regarding `CN1CCc2cc(Cl)c(O)cc2[C@@H](c2ccccc2)C1`, the inhibition in series [6] worked out at 99%.

Turning to `Cc1nc2n(c(=O)c1CCN1CCC(c3noc4cc(F)ccc34)CC1)CCCC2` [RISPERIDONE], in series [7], the Activity entry is reported as “Toxic”. Also, the ED50 was determined as 0.28 mg/kg in [2], 0.51 mg/kg in series [3], 0.011 mg/kg in series [5] and 0.52 mg/kg in series [9]. In addition, in series [8], the result was inactive.

As for `CCN(C)C(=O)Oc1cccc([C@H](C)N(C)C)c1`, the outcome in series [10] was Active.

As a reminder, the Ki is the dissociation constant of the complex between target and ligand, obtained from inhibition or displacement. Read a low Ki as tighter binding. For `O=C1CCc2cc(CCCCN3CCC(c4noc5cc(F)ccc45)CC3)cc3c2N1CC3`, the Ki in series [11] worked out at 540 nM; in [12] it was 712 nM; in series [13] it was 17.7 nM; in series [14], 54.9 nM; in [15], 99.3 nM; in series [16], 9.9 nM. For the same compound, the results for the Ki in series [17] and in series [18] were 11.7 nM and 19.3 nM, respectively.

Turning to `NCCc1c[nH]c2ccc(O)cc12`, the Activity came out at 98% in series [19] and 94.5% in series [20].

Regarding `O=C(CCCN1CCC(c2noc3cc(F)ccc23)CC1)c1cc2c3c(c1)CCN3C(=O)CC2`, the Ki in series [11] worked out at 610 nM; in series [12], 421 nM; in series [13] it was 241 nM; in [14] it was 61.3 nM; in series [15], 491.3 nM; in series [16] it was 10.3 nM. Further, the Ki in [17] was 12 nM; in series [18], 9.9 nM.

With `O=C1CCc2cc(C(O)CCCCN3CCC(c4noc5cc(F)ccc45)CC3)cc3c2N1CC3` (configuration not stated), the Ki in series [11] came out at 33.7 nM; in [12], 43.5 nM; in series [13], 29.5 nM; in series [14], 116 nM; in [15], 596 nM; in series [16], 8.4 nM. Further, the Ki is 12 nM in series [17] and 0.4 nM in series [18].

Broadly, the IC50 is the midpoint of a concentration-inhibition curve. A higher IC50 goes with weaker potency in that assay. Take `O=C1CCc2cc(C(O)CCCN3CCC(c4noc5cc(F)ccc45)CC3)cc3c2N1CC3` (configuration not stated): the Ki in [11] was found to be 742 nM; in series [12], 339 nM; in series [13] it was 6.36 nM; in series [14] it was 45.4 nM; in [15], 339 nM; in series [17], 22.5 nM. The compound also gave a Ki in series [18] of 69.5 nM. 1900 nM corresponded to half-maximal inhibition in series [21] (IC50).
